Legend:
[1] = target: T1, Dihydrofolate reductase (Homo sapiens, UniProt P00374)
T1 sequence (P00374 whole entry): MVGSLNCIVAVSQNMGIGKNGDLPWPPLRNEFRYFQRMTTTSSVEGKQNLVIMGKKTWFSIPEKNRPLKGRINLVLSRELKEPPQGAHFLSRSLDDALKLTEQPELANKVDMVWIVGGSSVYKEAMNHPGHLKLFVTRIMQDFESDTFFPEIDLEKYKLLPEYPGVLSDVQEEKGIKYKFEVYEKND
Description: Compound was evaluated for Dihydrofolate Reductase (DHFR) inhibition

[2] = Compound was evaluated for cell growth inhibition of human (WI-L2) leukemic cells.; type: functional, cell-based; details: WIL2

IC50 [1] [µM]	Structure (SMILES)	IC50 [2] [µM]
> 20	Cc1nc(N)c2nc(CN(C)c3ccc(C(=O)NC(CCC(=O)O)C(=O)O)cc3)cnc2n1 (stereo not drawn)	–
6	CN(Cc1cnc2ncnc(N)c2n1)c1ccc(C(=O)NC(CCC(=O)O)C(=O)O)cc1 (stereo not drawn)	–
–	Nc1nc(N)c2nc(CNc3ccc(C(=O)N[C@@H](CCC(=O)O)C(=O)O)cc3)cnc2n1 [AMINOPTERIN]	0.007

Source: ChEMBL document CHEMBL1125867 (J Med Chem, 1991)
